Target: glucose oxidase (GOx) (Aspergillus niger, UniProt P13006)
Experiment: HRP-coupled chromogenic assay of H2O2
Format: biochemical
Settings: free enzyme; O2 co-substrate

Chain of glucose oxidase (GOx) (P13006 17-605): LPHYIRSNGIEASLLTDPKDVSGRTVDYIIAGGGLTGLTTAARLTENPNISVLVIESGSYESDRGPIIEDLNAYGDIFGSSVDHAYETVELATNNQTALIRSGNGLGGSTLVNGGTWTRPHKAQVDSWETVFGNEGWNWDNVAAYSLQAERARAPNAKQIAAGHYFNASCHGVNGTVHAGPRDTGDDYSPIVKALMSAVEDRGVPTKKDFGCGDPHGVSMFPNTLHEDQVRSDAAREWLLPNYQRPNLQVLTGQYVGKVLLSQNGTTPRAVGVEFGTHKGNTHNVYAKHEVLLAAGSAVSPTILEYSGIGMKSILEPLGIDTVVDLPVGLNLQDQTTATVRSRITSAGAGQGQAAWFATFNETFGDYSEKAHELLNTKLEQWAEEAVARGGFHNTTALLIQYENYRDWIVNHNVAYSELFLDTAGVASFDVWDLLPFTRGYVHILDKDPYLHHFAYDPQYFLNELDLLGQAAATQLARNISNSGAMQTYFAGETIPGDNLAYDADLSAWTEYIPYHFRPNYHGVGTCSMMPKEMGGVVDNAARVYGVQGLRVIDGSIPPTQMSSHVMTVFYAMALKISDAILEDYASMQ

OC[C@H]1OC(O)[C@H](O)[C@@H](O)[C@@H]1O (stereo partly shown) [glucose]
KM: glucose diffuses in and one of the products, namely hydrogen peroxide, must diffuse out

Source: article PMC5883864 (Chemical Science, 2017)
